One series relates to HeLa cells. As to the kind of experiment: Cytotoxicity / cell death. In kind it is cell-based. The conditions noted are these: data not shown.
Series [1] deals with NF-κB transcription activity in HeLa cells. As to the kind of experiment: NF-κB luciferase reporter assay (pGL-4.32), TNF-α induced. In kind it is cell-based. On the procedure: For NF-κB transcription activity, PGL-4.32 contains five copies of the NF-κB response element, which is responsible for the transcription of the luciferase reporter gene, with pRL-SV40 as the internal control. NF-κB transcription activity was determined by firefly luciferase expression and normalized by renilla luciferase level. pGL-4.32 reporter plasmids (Promega) and pRL-sv40 renilla luciferase reporter (Promega) were co-transfected into HeLa cells using Lipofectamine 3000 reagent kit. Subsequently, 24 h after transfection, cells were cultured with the compounds of different dilutions for another 24 h. Furthermore, TNF-α was added, and the plates were cultured for another 4 h. The cells were lysed, and the luminescence was measured using the Luciferase Assay System. A minimum of three samples were taken for each sample.

Another series deals with Pin1 (Homo sapiens, UniProt Q13526). The series is described as follows: Binding to Pin1 (data not shown).
For another series, the target named is polo-box domain of Plk1 (Homo sapiens, UniProt P53350). The series is described as follows: Binding to polo-box domain of Plk1 (data not shown).
The target of a further series is SCF^β-TrCP1 (Homo sapiens, UniProt Q9Y297). The series is described as follows: In vitro ubiquitination assay (GST-Wee1KR substrate, immunoblotting). The class given is biochemical. Particulars: immunoblots quantitated by ImageJ. Here is the method:
Components of SCF complex (SKP1, Cul1, Rbx1, and hemagglutinin (HA)-tagged β-TrCP) were expressed in HEK293T cells. Anti-HA antibody was added into the SCF complexes expressed HEK 293T cell lysate and rotated at 4°C for 1 h. Aliquots of this mixture were added to protein G beads and rotated at 4°C for 30 min. After washing the beads in cell lysis buffer three times, the tube was centrifuged at 20,400 × g for 5 min and the supernatant was discarded. The protein on the beads was used as recombinant SCF^β-TrCP complexes. Aliquots of SCF complexes bound on the beads were then added to ubiquitination reactions (10 mM Tris pH = 7.5, 5 mM MgCl2, 1 mM DTT, 1 mM ATP, 20 mM creatine phosphate, 0.1 mg/mL creatine kinase, 5 mM NaF, 1 mM Na3VO4, 2 mg/mL ubiquitin, 0.5 μg E1 enzyme, 2 μg E2 enzyme) in a final volume of 30 µL. Compounds of 100 µM final concentration were added to reactions, and GST-Wee1KR was added as substrate 15 min later. The reaction mixtures were incubated at 37°C for 2 h and were further examined by immunoblotting.
Immunoblotting followed by in vitro ubiquitination assay was performed using anti-human Wee1A [30]. Immunoblotting in the analysis of protein degradation was performed using anti-phospho-β-catenin (Ser33/37/Thr41) antibody (1:1000, Cell Signaling Technology, Danvers, MA, USA), anti-phospho-IκBα (Ser32) (14D4), Rabbit mAb (1:1000, Cell Signaling Technology), anti-β-catenin (D10A8) (1:1000, Cell Signaling Technology), anti-IκBα antibody (1:1000, Cell Signaling Technology), and Goat polyclonal anti-rabbit IgG antibody (1:5000, Proteintech, Am Klopferspitz, Planegg-Martinsried, Germany). The transferred membrane was incubated with specific antibody, then detected using Super Signal West Pico chemiluminescent substrate (Thermo Fisher Scientific) and FUSION SOLO S (VILBER LOURMAT/MS equipment, Zi Sud torcy, Marne-la-vallee, France). The quantification of immunoblotting results was performed using ImageJ software.

The next series has as its target SKP2 (Homo sapiens, UniProt Q13309). As to the kind of experiment: Binding to SKP2 (data not shown).
The test system of the next series is 14-3-3 proteins. As to the kind of experiment: Binding to 14-3-3 proteins (data not shown).

Sequence of SKP2 (Q13309 whole entry, species assumed): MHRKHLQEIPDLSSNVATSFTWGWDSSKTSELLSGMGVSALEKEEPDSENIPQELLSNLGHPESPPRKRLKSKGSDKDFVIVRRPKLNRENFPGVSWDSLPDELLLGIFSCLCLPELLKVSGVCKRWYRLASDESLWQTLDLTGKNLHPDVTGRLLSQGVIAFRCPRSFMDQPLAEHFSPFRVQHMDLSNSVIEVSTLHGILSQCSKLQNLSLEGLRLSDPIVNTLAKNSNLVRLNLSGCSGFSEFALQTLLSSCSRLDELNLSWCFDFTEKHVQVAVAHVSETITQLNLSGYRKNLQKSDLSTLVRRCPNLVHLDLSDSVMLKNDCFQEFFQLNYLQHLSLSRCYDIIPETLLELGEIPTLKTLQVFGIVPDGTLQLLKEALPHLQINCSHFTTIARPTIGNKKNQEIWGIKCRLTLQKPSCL
Sequence of polo-box domain of Plk1 (P53350 326-603 limits assumed): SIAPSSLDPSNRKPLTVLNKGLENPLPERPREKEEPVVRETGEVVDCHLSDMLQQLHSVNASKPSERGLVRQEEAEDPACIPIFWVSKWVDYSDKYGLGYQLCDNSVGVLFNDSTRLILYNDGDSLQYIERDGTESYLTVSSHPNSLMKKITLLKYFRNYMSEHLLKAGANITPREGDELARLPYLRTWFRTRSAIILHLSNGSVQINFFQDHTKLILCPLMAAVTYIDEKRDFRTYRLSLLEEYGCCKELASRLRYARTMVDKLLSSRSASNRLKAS
Sequence of Pin1 (Q13526 whole entry, species assumed, the tested form may be a part): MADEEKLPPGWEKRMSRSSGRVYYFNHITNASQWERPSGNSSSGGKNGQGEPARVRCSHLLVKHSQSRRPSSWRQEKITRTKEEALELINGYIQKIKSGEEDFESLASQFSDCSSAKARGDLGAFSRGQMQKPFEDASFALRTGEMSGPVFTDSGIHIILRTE
Sequence of SCF^β-TrCP1 (Q9Y297 whole entry): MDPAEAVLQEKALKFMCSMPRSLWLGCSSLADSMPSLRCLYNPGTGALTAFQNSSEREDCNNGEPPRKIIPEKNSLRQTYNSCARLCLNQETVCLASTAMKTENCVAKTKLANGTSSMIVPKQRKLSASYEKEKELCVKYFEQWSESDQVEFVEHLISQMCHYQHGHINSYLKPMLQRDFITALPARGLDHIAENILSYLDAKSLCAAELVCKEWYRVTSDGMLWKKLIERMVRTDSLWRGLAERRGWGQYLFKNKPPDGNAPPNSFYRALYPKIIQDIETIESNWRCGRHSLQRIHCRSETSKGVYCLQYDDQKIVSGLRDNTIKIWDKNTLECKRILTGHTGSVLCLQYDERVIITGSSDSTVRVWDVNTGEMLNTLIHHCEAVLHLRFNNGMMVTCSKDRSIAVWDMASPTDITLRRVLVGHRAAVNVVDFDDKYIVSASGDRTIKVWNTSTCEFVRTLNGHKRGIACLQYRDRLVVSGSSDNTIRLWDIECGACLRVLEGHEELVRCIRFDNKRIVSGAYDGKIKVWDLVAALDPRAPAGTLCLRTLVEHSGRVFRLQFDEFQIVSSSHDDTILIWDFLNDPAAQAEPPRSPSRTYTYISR
Sequence of SCF^β-TrCP1 (P63208 whole entry partner): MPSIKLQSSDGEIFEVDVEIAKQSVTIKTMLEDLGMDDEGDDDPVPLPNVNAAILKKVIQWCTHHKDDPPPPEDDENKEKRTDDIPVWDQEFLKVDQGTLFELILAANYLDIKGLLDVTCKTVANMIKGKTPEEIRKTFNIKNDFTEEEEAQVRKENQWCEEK
Sequence of SCF^β-TrCP1 (Q13616 whole entry partner): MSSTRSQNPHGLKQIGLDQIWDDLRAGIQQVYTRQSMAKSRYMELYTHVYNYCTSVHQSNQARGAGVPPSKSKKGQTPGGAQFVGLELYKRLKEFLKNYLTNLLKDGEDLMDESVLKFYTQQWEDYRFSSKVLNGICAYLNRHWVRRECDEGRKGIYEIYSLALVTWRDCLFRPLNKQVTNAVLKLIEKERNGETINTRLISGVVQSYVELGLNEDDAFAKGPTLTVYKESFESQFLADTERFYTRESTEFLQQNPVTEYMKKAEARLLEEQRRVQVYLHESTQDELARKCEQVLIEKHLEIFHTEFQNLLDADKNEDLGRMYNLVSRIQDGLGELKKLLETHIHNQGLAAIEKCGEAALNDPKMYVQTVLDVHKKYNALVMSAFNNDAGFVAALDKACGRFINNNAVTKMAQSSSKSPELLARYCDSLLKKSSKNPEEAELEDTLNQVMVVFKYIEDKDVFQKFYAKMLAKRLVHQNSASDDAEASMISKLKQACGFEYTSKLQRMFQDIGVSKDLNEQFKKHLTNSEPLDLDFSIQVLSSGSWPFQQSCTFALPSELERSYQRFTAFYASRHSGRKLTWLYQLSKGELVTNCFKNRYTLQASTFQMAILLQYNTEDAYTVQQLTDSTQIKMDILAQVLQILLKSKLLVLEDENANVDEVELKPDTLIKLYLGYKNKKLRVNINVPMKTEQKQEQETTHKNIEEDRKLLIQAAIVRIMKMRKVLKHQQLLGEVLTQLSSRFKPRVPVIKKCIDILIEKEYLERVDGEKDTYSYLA
Sequence of SCF^β-TrCP1 (P62877 whole entry partner): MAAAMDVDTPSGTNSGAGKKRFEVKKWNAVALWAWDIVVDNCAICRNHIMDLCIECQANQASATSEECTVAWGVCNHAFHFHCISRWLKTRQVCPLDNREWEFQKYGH

Take `Cc1cc(O)c(C(=O)/C=C/c2cccc(O)c2)c(=O)o1` [NPD5943]: the non-specific cytotoxicity entry in the series on HeLa cells is recorded as “cytotoxicity only at high concentration”. Moreover, the “NF-κB transcription, % of that of the control group (DMSO, TNF-α)” value in series [1] (20 μM) is reported as “approximately 20%”. Further, the “TNF-α induced NF-κB activation of transcription” value in series [1] (24 h compound then TNF-α 4 h) is recorded as “reduced NF-κB activation dose-dependently”. The “binding to Pin1” value at Pin1 is “did not observe any binding”. Besides, on polo-box domain of Plk1, the “binding to polo-box domain of Plk1” value is recorded as “did not observe any binding”. The same molecule had an IC50 at SCF^β-TrCP1 of 30 µM. Besides, the “binding to SKP2” value at SKP2 is “did not bind to SKP2 at all”. In addition, the “binding to 14-3-3 proteins” value in the series on 14-3-3 proteins is listed as “did not observe any binding”.

(Values after article PMC10398414, “Isolation and characterization of β-transducin repeat-containing protein ligands screened using a high-throughput screening system” (Oncology Research, 2023).)
